Measurements from patent US12281329B2, “Compositions and methods for immune cell modulation in adoptive immunotherapies” (Fate Therapeutics, Inc., priority 2016, dated 2025).

Experiments:
NK cells [1] = assay: Feeder-free culture of CD3/CD19 depleted PBMC with IL-15 and GSK3 inhibitor: NK cell expansion and phenotype; assay type: cell-based, human
Protocol: NK Cell Isolation. Healthy adult donor blood was obtained from commercial sources or from GCRC core laboratory of Scripps Research Institute, La Jolla, CA Peripheral blood mononuclear cells (PBMC) were isolated by density gradient centrifugation using Ficoll-Paque PLUS (GE Healthcare: Life Sciences) and then depleted of B and T cells without culturing the PBMC using CD19 Microbeads (Miltenyi Biotec, #130-050-301) and CD3 Microbeads (Miltenyi Biotec, #130-050-101) within 24 to 36 hours according to manufacturer directions.
NK cell culture: CD3/CD19 depleted PBMC (0.5-1×10E6/mL) were cultured in BO medium (2:1 mixture of DMEM, (Corning Cell-Gro #10-017-CV) and Ham's F12 (Corning Cell-Gro #10-080-C) with 10% human AB serum (Valley Biomedical, #HP1022), 100 U/mL penicillin and 100 ug/mL streptomycin (Corning, 30-002-CI), 20 uM 2-mercaptoethanol (Sigma, M3148), 50 uM ethanolamine (Sigma, E0135), 10 ug/mL ascorbic acid (Sigma, A4544), and 1.6 ng/mL sodium selenite (Sigma, S5261). Cells were cultured for 7-8 days (up to four weeks) in medium containing 10 ng/mL recombinant human IL-15 (Life Technologies, PHC9154) with or without GSK3 inhibitor CHIR99021 (BioVision #1677-5), histone lysine methyltransferase inhibitor BIX 01294 (Tocris, 3364), TGF-β1 receptor inhibitor SB-431542 (BioVison, 1674-5), or human interferon alpha (R&D Systems, 11200-1). After culturing, cells were counted using trypan blue or by Cellometer (Nexcelom) and used for flow cytometry and functional assays. Flow cytometry was performed on a BD LSRFortessa and results were analyzed by FlowJo software. Commercially available antibodies to the following surface markers were used for flow cytometry: CD3, CD14, CD16, CD19, CD56, CD57 and NKG2C (BD Biosciences, Biolegend, or R&D Systems). Where indicated, K562 feeder cells were used. Where indicated other modulators and culture reagents were added.
One aspect of the present invention is to provide a method and a system to culture, expand and/or modulate NK cells for adoptive cell therapy. In some embodiments, the method and system for culturing, expanding and/or modulating NK cells is without the use of feeder cells, or feeder cell conditioned medium. Peripheral blood mononuclear cells (PBMC) were isolated from healthy adult donors. The isolated apheresis product (Day 0, pre-depletion; FIG. 2A) was T and B cell depleted using anti-CD19 and CD3 antibodies without pre-depletion culturing (Day 0, post-depletion; FIG. 2B). The post-depletion cell population was then cultured in a feeder free condition with the presence of recombinant human IL-15 (10 ng/mL) and 5 μM CHIR99021, a GSK3 inhibitor, for about 3 to 7 days.

NK cells [2] = assay: NK cell culture with modified K562 feeder cells: proliferation and subtype skewing; assay type: cell-based, human; details: 7 days
Protocol: CD3/19 depleted PBMCs were cultured for 7 days with modified K562 feeder cells in the presence of DMSO (Vehicle), 0.1 uM GSK3i CHIR99021 alone (C), or a combination of 0.1 uM GSK3i CHIR99021, 40 nM MEKi PD0325901, and 1 nM Rapamycin (CPR).

K562 cells = assay: NK cell cytotoxicity assay, K562 target cells; assay type: cell-based; details: 4 hours; NK cells overnight 10 ng/mL IL-15 only or 7 day IL-15 + 5 μM CHIR99021
Protocol: NK Cell Cytotoxicity Assay: Cytotoxicity was determined using a flow cytometry based method based on a previously published method (Kim, et al. J Immunol Methods. 2007 Aug. 31; 325(1-2): 51-66). NK cells were co-cultured with e450-proliferation dye-labelled targets for 4 hours. CellEvent™ Caspase-3/7 Green Flow Cytometry Assay Kit (Lifer Technologies) was used to assay for cell death among target cells, and samples were read on a BD LSRFortessa cytometer. Killing of SKOV-3 targets was quantified using the Incucyte Zoom instrument. SKOV-3 cells were transiently transduced with NucLight-Red BacMam reagent (Essen Biosciences) and co-cultured with the indicated NK cell populations for 74 hours, with images taken on two hour intervals. Caspase 3/7 activity was monitored to indicate target cells undergoing apoptosis using the CellEvent™ Caspase-3/7 Green Detection Reagent. The number of target cells was normalized to SKOV-3 cells cultured alone, and targets undergoing apoptosis were quantified based on caspase 3/7 activity.
The ability of GSK3 inhibition to enhance cytotoxicity of NK cells isolated directly from donors was assessed using in vitro killing assays. […] depleted PBMC population was treated overnight with 10 ng/mL IL-15 only (primed), or a 7 day culture combination of 10 ng/mL IL-15 and 5 μM CHIR99021. The target cells for the killing assays included K562 cells, CD20+ Raji cells, HER2+ SKOV3 cells and HER2+A549 cells. The E:T (Effector:Target) ratio applied to each assay ranged from 0.1, 0.5, 1, 5 to 10. After the target cells were incubated with the differently treated NK cells for 4 hours, the respective percentage of specific killing (target cell lysis) was calculated. […] Raji cells are less prone to NK mediated cytotoxicity.
The ability of STING agonist to enhance cytotoxicity of GSK3i multiday modulated NK cells was assessed using in vitro killing assays. […]

[3] = 7 day culture with GSK3 inhibitor vs cultured without GSK3i
[4] = Day 7 GSK3i culture vs overnight primed

## Cc1c[nH]c(-c2cnc(NCCNc3ccc(C#N)cn3)nc2-c2ccc(Cl)cc2Cl)n1 [CHIR99021]
NK cells [1]; 7 day culture with GSK3i vs 7 day without GSK3i
  percentage of CD57+ cells in the total NK populations: increased
NK cells [1]; [3]
  CD57+ NK cell number, increase on average: 7-8 fold
  CD57+NKG2C+ NK cell number, increase on average: 7-8 fold
NK cells [1]; Day 7, IL-15 10 ng/mL + 5 μM CHIR99021, feeder free, about 20% post-depletion Day 0
  NK cell (CD56+CD3−) percentage in population: about 99%
NK cells [1]; Day 7, IL-15 10 ng/mL + 5 μM CHIR99021, about 1% post-depletion
  remaining T cells (CD56-CD3+) percentage in population: 0.25%
NK cells [1]; [4]
  cell number of CD57+ NK subset, increase on average: 5-6 fold
  cell number of CD57+NKG2C+ NK subset, increase on average: 5-6 fold
NK cells [1]; short term treatment, 16 hours, comparable to vehicle
  frequency of CD57+ cells in the culture: did not generate a higher frequency
NK cells [2]; K562 feeder modified to express IL21 and 41BBL, vs vehicle
  proliferation of the activated NK cells overall: increased
NK cells [2]; modified K562 feeder cells, vs vehicle control
  number of CD57+NK cells: highest
K562 cells
  E:T50 (E:T ratio when there is 50% of target cell lysis), K562 killing assay: about 1
